The numbers were not newly measured in patent publication US20040208906A1, “Pharmaceutical composition for topical administration” (Daiichi Suntory Pharma Co., Ltd., priority 1999, published 2004), which cites them from elsewhere.

The test system of data set [1] is pathogens of periodontitis, including Porphyromonas gingivalis.
In data set [2] the test system is Gram-positive bacteria (MSSA, Streptococcus pyogenes, Streptococcus pneumoniae, PRSP, oral streptococci, enterococci). The following applies: Gram-positive bacteria incl. MSSA.

As for `C[C@@H](O)[C@H]1C(=O)N2C(C(=O)[O-])=C([C@H]3CCCO3)S[C@H]12.[Na+]` [Compound 1, sodium (+)-(5R,6S)-6-[(R)-1-hydroxyethyl]-7-oxo-3-[(R)-2-tetrahydrofuryl]-4-thia-1-azabicyclo[3.2.0]hept-2-ene-2-carboxylate], the antibacterial activity entry in data set [1] and in data set [2] was “potent antibacterial activity” throughout.
